# Data published in patent US20250000083A1, “CRYOPRESERVATION PREPARATION FOR CORNEAL ENDOTHELIAL CELLS AND METHOD FOR PRODUCING SAID CRYOPRESERVATION PREPARATION” (THE DOSHISHA, priority 2021, published 2025).
# Tests used:
# [1] = system: Human corneal endothelial cells; assay: Adhesion of thawed cells cultured in medium with addition of DMSO (phase contrast microscopy), Example 3; format: cell-based
# Method: (§1) • 1. Collect cells in the same manner as in Example 2 (Steps 1 to 10) and preserve the cells in cryotubes using Cryostor CS2. • 2. Freeze in a programmable freezer from 4° C. to −80° C. at −0.5° C./min. 3. Transfer to a Bicell processing housing previously cooled at −80° C. when a temperature was decreased to −80° C. and cryopreserve the Bicell in a freezer at −80° C. for 3 days. • 4. After 3 days of cryopreservation, thaw the cryotubes in which the cells were preserved in a water bath at 37° C. for 1 to 2 minutes. • 5. Collect the cells in a medium warmed to 37° C. in advance, and measure the number of cells collected and cell viability by trypan blue staining. • 6. Dispense the collected cells into four 15 mL STEMFULLS and centrifuge at 300 G for 5 minutes. • 7. After centrifugation, remove a supernatant, adjust a cell density to 1000 cells/mm^2 using media containing 10%, 5%, 2%, and 0% DMSO, and reseed in 12-well plates. • 8. Photograph the cells under a phase contrast microscope at 1 h, 3 h, 6 h, and 24 h after seeding. • 9. After taking photographs of the cells at each time point, collect all cells in the container, including floating cells, and determine cell viability by trypan blue staining.
# [2] = system: Human corneal endothelial cells; assay: Viability of cells reseeded in medium with DMSO and collected (trypan blue), Example 3; format: cell-based; conditions: medium containing 10% DMSO
# Method: as §1
smiles,measurement,setting,value
"C[S+](C)[O-] [DMSO, dimethyl sulfoxide]",cell adhesion,"[1]; 5% DMSO, after 3 and 6 hours",less than half of the cells were adherent
same,cell adhesion,"[1]; 5% DMSO, after 1 hour",almost no adherent cells
same,cell adhesion,"[1]; 5% DMSO, after 24 hours",almost no adherent cells
same,cell adhesion,"[1]; 10% DMSO, until 24 hours after seeding",no cells were adherent
same,adhesion rate compared with medium without DMSO,[1]; medium containing 2% DMSO,not different
same,number of cells compared with medium without DMSO,[1]; medium supplemented with 5% DMSO,significantly lower
same,number of cells compared with medium without DMSO,[1]; medium supplemented with 10% DMSO,significantly lower
same,viability of cells after reseeded and collected,[2]; at 1 hour,no decrease in viability
same,viability of cells after reseeded and collected,[2]; subsequent to 1 hour,decrease in viability
